Read-outs that look alike come from different tables or passages of the source.
What was measured:
TC32 = experiment: Cytotoxicity, resazurin fluorescence, TC32; type: cell-based; conditions: Homo sapiens, TC-32, 72 h
Description: (§1) Exemplary compounds of the presently-disclosed subject matter were assessed for cytotoxicity (Table 5) in Ewing sarcoma (TC32) and non-Ewing (PC3 prostate cancer). […] Cells (1000-5000/well) were seeded in 96-well plates and allowed to attach and grow for 24 hr prior to adding compounds in half-log increments from 0.3 nM-10 μM. Cell viability was assessed after 72 hr continuous incubation with compounds using resazurin fluorescence. GI50 values were estimated using GraphPad Prism.

DU145 = experiment: Cytotoxicity, resazurin fluorescence, DU145; type: cell-based; conditions: Homo sapiens, read-out: GI50 DU145
PC3 [1] = experiment: IC50 in PC3 cells; type: cell-based; conditions: Homo sapiens, PC-3, read-out: IC50 PC2, Table 2; head prints PC2, text PC3
Description: (§2) Exemplary compounds of the presently-disclosed subject matter were assessed for activity, including clearance, potency, and selectivity. Results from studies are compiled in Tables 2-4.
(§3) Desirable clearance was identified at lower values of mL hr^−1kg^−1 (e.g., about ≤10 mL hr^−1 kg^−1), desirable potency was identified at lower values of IC50 (e.g., about ≤10 nM in TC32 cells), and desired selectivity was identified at higher ratios of IC50 in PC3/IC50 in TC32 (e.g. about >10).

BL1395 = experiment: Cytotoxicity, resazurin fluorescence, BL1395; type: cell-based; conditions: read-out: GI50 BL1395
PANC1 = experiment: Cytotoxicity, resazurin fluorescence, PANC1; type: cell-based; conditions: Homo sapiens, read-out: GI50 PANC1
EWS cells = experiment: Cytotoxicity, average over Ewing (EWS) cell panel; type: cell-based; conditions: Table 6; 72 hr; average of EWS cells
Description: as §1

RDES = experiment: Cytotoxicity, resazurin fluorescence, RDES; type: cell-based; conditions: RD-ES; Table 6; 72 hr; EWS cells
ES7 = experiment: Cytotoxicity, resazurin fluorescence, ES7; type: cell-based; conditions: Homo sapiens, ES7; Table 6; 72 hr; EWS cells
log P = type: physicochemical; conditions: Table 2
H460 = experiment: Cytotoxicity, resazurin fluorescence, H460; type: cell-based; conditions: Homo sapiens, read-out: GI50 H460
Non EWS cells = experiment: Cytotoxicity, average over non-Ewing cell panel; type: cell-based; conditions: read-out: GI50 Average, Non EWS cells
Description: as §1

SK.ES1 = experiment: Cytotoxicity, resazurin fluorescence, SK.ES1; type: cell-based; conditions: Homo sapiens, SK-ES1; Table 6; 72 hr; EWS cells
LNCap = experiment: Cytotoxicity, resazurin fluorescence, LNCap; type: cell-based; conditions: Homo sapiens, LNCaP, read-out: GI50 LNCap
ES4 = experiment: Cytotoxicity, resazurin fluorescence, ES4; type: cell-based; conditions: Table 6; 72 hr; EWS cells
PC3 [2] = experiment: Cytotoxicity, resazurin fluorescence, PC3; type: cell-based; conditions: Homo sapiens, PC-3, 72 h
Description: as §1

A673 = experiment: Cytotoxicity, resazurin fluorescence, A673; type: cell-based; conditions: Homo sapiens, A673; Table 6; 72 hr; EWS cells
TC71 = experiment: Cytotoxicity, resazurin fluorescence, TC71; type: cell-based; conditions: Homo sapiens, TC-71; Table 6; 72 hr; EWS cells
A549 = experiment: Cytotoxicity, resazurin fluorescence, A549; type: cell-based; conditions: Homo sapiens, read-out: GI50 A549
ES3 = experiment: Cytotoxicity, resazurin fluorescence, ES3; type: cell-based; conditions: Table 6; 72 hr; EWS cells
HepG2 = experiment: Cytotoxicity, resazurin fluorescence, HepG2; type: cell-based; conditions: Homo sapiens, read-out: GI50 HepG2
5838 = experiment: Cytotoxicity, resazurin fluorescence, 5838; type: cell-based; conditions: Table 6; 72 hr; express EWS-ERG
ES8 = experiment: Cytotoxicity, resazurin fluorescence, ES8; type: cell-based; conditions: Homo sapiens, ES8; Table 6; 72 hr; EWS cells
Hela = experiment: Cytotoxicity, resazurin fluorescence, Hela; type: cell-based; conditions: Homo sapiens, HeLa, read-out: GI50 Hela
TC32 cells = experiment: Potency IC50 in TC32 cells and selectivity; type: cell-based; conditions: Homo sapiens, TC-32, Table 2, read-out: IC50 TC32
Description: as §2, §3

[3] = Clearance (CL) / pharmacokinetics; type: in vivo, mice; conditions: mouse, plasma, iv; Table 2
Description: as §2, §3
Pharmacokinetics of exemplary compounds of the presently-disclosed subject matter were studied in mice following bolus IV dosing. Groups of three mice were administered the compound(s) and blood samples were collected via saphenous bleed. Plasma was separated by centrifugation and extracted to quantitate analytes by LC/MS/MS. Sample analysis followed upon the system meeting system suitability criteria customary for fit for purpose analytical methods. FIG. 1A includes data comparing YL-C09 to mithramycin (MTM) dosed separately. FIG. 1B includes data for YL-B171, YL-C110 and MTM dosed in cassette format.

[4] = read-out: GI50 TC32, Table 6, EWS cells
[5] = DU-145, Table 6, 72 hr, non EWS cells
[6] = Table 6, 72 hr, lymphocyte origin
[7] = PANC-1, Table 6, 72 hr, non EWS cells
[8] = NCI-H460, Table 6, 72 hr, non EWS cells
[9] = Table 6, 72 hr, average of non EWS cells
[10] = Table 6, non EWS cells, read-out: GI50 PC3
[11] = A549, Table 6, 72 hr, non EWS cells
[12] = HepG2, Table 6, 72 hr, hepatic origin

Row | IC50 (PC3 [1]) [nM] | logP (log P) | IC50 (TC32 cells) [nM] | clearance [3] [mL/min/kg] | SMILES | GI50 (TC32; read-out: GI50 TC32, Table 5) [nM] | GI50 (TC32; [4]) [nM] | GI50 (EWS cells) [nM] | GI50 (RDES) [nM] | GI50 (ES7) [nM] | GI50 (SK.ES1) [nM] | GI50 (ES4) [nM] | GI50 (PC3 [2]; read-out: GI50 PC3, Table 5) [nM] | GI50 (A673) [nM] | GI50 (TC71) [nM] | GI50 (ES3) [nM] | GI50 5838 [nM] | GI50 (ES8) [nM] | GI50 (DU145; [5]) [nM] | GI50 (BL1395; [6]) [nM] | GI50 (PANC1; [7]) [nM] | other results
1 | 19.5 | 1.62 | 2.15 | 0.717 | CO[C@H](C(=NOCCNC(=O)c1cc2cc(F)ccc2[nH]1)[C@@H](O)[C@@H](C)O)[C@@H]1Cc2cc3cc(O[C@H]4C[C@@H](O[C@H]5C[C@@H](O)[C@H](O)[C@@H](C)O5)[C@H](O)[C@@H](C)O4)c(C)c(O)c3c(O)c2C(=O)[C@H]1O[C@H]1C[C@@H](O[C@H]2C[C@@H](O[C@H]3C[C@](C)(O)[C@H](O)[C@@H](C)O3)[C@@H](O)[C@@H](C)O2)[C@H](O)[C@@H](C)O1 [YL-B168] | 30 | 30.3 | 66.9 | 32.9 | 76.9 | 39.2 | 30.9 | 65 | 34.5 | 258 | 56.7 | 40.2 | 68.8 |  |  |  | GI50 (DU145; DU-145, 72 h): 90.5 nM; GI50 (BL1395; Lymphocyte, 72 h): 49.9 nM; GI50 (PANC1; PANC-1, 72 h): 105 nM; GI50 (H460; NCI-H460, 72 h): 116 nM; GI50 (Non EWS cells; 72 h): 191 nM; GI50 (LNCap; 72 h): 275 nM; GI50 (PC3 [2]; read-out: GI50 PC3, Table 6, non EWS cells): 65.2 nM; GI50 (A549; A549, 72 h): 358 nM; GI50 (HepG2; HepG2, 72 h): > 1000 nM; GI50 (Hela; 72 h): 470 nM
2 | 10.7 | 2.93 | 4.62 |  | CO[C@H](C(=NOCCNC(=O)c1cc2cc(OC(F)(F)F)ccc2[nH]1)[C@@H](O)[C@@H](C)O)[C@@H]1Cc2cc3cc(O[C@H]4C[C@@H](O[C@H]5C[C@@H](O)[C@H](O)[C@@H](C)O5)[C@H](O)[C@@H](C)O4)c(C)c(O)c3c(O)c2C(=O)[C@H]1O[C@H]1C[C@@H](O[C@H]2C[C@@H](O[C@H]3C[C@](C)(O)[C@H](O)[C@@H](C)O3)[C@@H](O)[C@@H](C)O2)[C@H](O)[C@@H](C)O1 [YL-B171] | 26 | 25.6 | 31.7 | 32.7 | 26.7 | 35.4 | 20.4 | 49 | 51 | 19.5 | 31.5 | 37.1 | 36.7 | 32.5 | 51.5 | 138 | GI50 (H460; [8]): 69.5 nM; GI50 (Non EWS cells; [9]): 97.6 nM; GI50 (LNCap; Table 6, 72 hr, non EWS cells): 117 nM; GI50 (PC3 [2]; [10]): 49.3 nM; GI50 (A549; [11]): 114 nM; GI50 (HepG2; [12]): 202 nM; GI50 (Hela; Table 6, 72 hr, non EWS cells): 105 nM
3 | 124 | 1.73 | 18.5 | 0.683 | CO[C@H](C(=NOCCNC(=O)c1[nH]c2ccc(Cl)cc2c1-c1cncnc1)[C@@H](O)[C@@H](C)O)[C@@H]1Cc2cc3cc(O[C@H]4C[C@@H](O[C@H]5C[C@@H](O)[C@H](O)[C@@H](C)O5)[C@H](O)[C@@H](C)O4)c(C)c(O)c3c(O)c2C(=O)[C@H]1O[C@H]1C[C@@H](O[C@H]2C[C@@H](O[C@H]3C[C@](C)(O)[C@H](O)[C@@H](C)O3)[C@@H](O)[C@@H](C)O2)[C@H](O)[C@@H](C)O1 [YL-C122] | 162 |  |  |  |  |  |  | 477 |  |  |  |  |  |  |  |  | 

Row | SMILES | IC50 (PC3 [1]) [nM] | logP (log P) | IC50 (TC32 cells) [nM] | clearance [3] [mL/min/kg] | GI50 (TC32; read-out: GI50 TC32, Table 5) [nM] | GI50 (TC32; [4]) [nM] | GI50 (EWS cells) [nM] | GI50 (RDES) [nM] | GI50 (ES7) [nM] | GI50 (SK.ES1) [nM] | GI50 (ES4) [nM] | GI50 (PC3 [2]; read-out: GI50 PC3, Table 5) [nM] | GI50 (A673) [nM] | GI50 (TC71) [nM] | GI50 (ES3) [nM] | GI50 5838 [nM] | GI50 (ES8) [nM] | GI50 (DU145; [5]) [nM] | GI50 (BL1395; [6]) [nM] | GI50 (PANC1; [7]) [nM] | other results
4 | COC(C(=NOCCNC(=O)c1cc2cc(Br)ccc2[nH]1)C(O)C(C)O)C1Cc2cc3cc(OC4CC(OC5CC(O)C(O)C(C)O5)C(O)C(C)O4)c(C)c(O)c3c(O)c2C(=O)C1OC1CC(OC2CC(OC3CC(C)(O)C(O)C(C)O3)C(O)C(C)O2)C(O)C(C)O1 (centres unmarked) [YL-B169] | 20.6 | 2.37 | 1.16 | 0.467 | 18 | 18.4 | 43.8 | 29.1 | 25.6 | 24.4 | 25.1 | 34 | 26 | 152 | 38.4 | 30.2 | 68.7 | 49.9 | 31.3 | 62.1 | GI50 (H460; [8]): 78.7 nM; GI50 (Non EWS cells; [9]): 171 nM; GI50 (LNCap; Table 6, 72 hr, non EWS cells): 239 nM; GI50 (PC3 [2]; [10]): 34 nM; GI50 (A549; [11]): 558 nM; GI50 (HepG2; [12]): 306 nM; GI50 (Hela; Table 6, 72 hr, non EWS cells): 176 nM

Reference: patent publication US20260297121A1, “MITHRAMYCIN (MTM) 2’ OXIMES” (University of Kentucky Research Foundation, priority 2023, published 2026)
